Measured values published in patent US20250134874A1, “PHARMACEUTICAL FORMULATIONS COMPRISING 3-({[(4R)-7-{METHYL[4-(PROPAN-2-YL)PHENYL]AMINO}-3,4-DIHYDRO-2H-1-BENZOPYRAN-4-YL]METHYL}AMINO)PYRIDINE-4-CARBOXYLIC ACID” (TACHYON THERAPEUTICS, INC., priority 2021, published 2025).

System: 301 cancer cell lines from different tumor types (OncoPanel; HD Biosciences)
Assay: 2D cell viability inhibition assay (CellTiter-Glo) in cancer cell line panel
Format: cell-based
Conditions: Homo sapiens
Procedure: In a larger screening study, compound 1 was evaluated across a broad cancer cell line panel (OncoPanel; HD Biosciences) composed of 301 cancer cell lines from different tumor types.
2D cell viability inhibition assays were performed in multiwell plates seeded with cells from the panel. After seeding, the plates were cultured overnight in a humidified incubator at 37° C. to promote adherence. Assays were initiated in individual wells by adding either DMSO as a vehicle control, growth media as a blank, or serially diluted compound 1 (10 μM to 0.0005 μM with 1:3 serial dilution). Cultures were incubated for 168 hours after which the number of viable cells in each test well was assessed using the CellTiter-Glo® Luminescent Cell Viability Assay. Luminescence readouts were performed using an EnVision® Multilabel Reader and the compound 1 readouts were normalized to the DMSO control readouts, expressed as a percent of the control. Outliers were flagged out by visual inspection. Percent of control was plotted against the corresponding compound 1 concentration and the absolute IC50 value was determined using four-parameter logistic non-linear regression as the concentration where inhibition was 50% of the control. For maximum inhibition <50%, the absolute IC50 was reported as >10. In addition to EC50 and IC50, AUC was determined and was normalized to the area corresponding to theoretical no-inhibition (the rectangular area defined by the compound dose range and 0 to 100 in y). Emax was recorded as the minimum in y with the compound dose range. For those cell lines where Emax>40, EC50 was manually set to 10 μM. A hierarchical clustering algorithm based on Euclidean distance between the standardized input values and “Ward.D” method as implemented in R hclust function was used to visualize the compound 1 cellular potency data. The sensitive/moderate/resistant calls for each cell line was determined by visually inspecting the resulting clustering dendrogram. All the analyses were done in R Core Team.

In the case of `CC(C)c1ccc(N(C)c2ccc3c(c2)OCC[C@H]3CNc2cnccc2C(=O)O)cc1` [Compound 1, 3-({[(4R)-7-{methyl[4-(propan-2-yl)phenyl]amino}-3,4-dihydro-2H-1-benzopyran-4-yl]methyl}amino)pyridine-4-carboxylic acid], the EC50 (NCI-H1944, NCIH1944 cell line) is reported as ≥ 10000 nM, the IC50 (NCI-H1944, NCIH1944 cell line) is reported as 16.3 nM and the EC50 (NCI-H1975, NCIH1975 cell line) is reported as 25.5 nM. For the same compound, the IC50 (NCI-H1975, NCIH1975 cell line) was 34.8 nM, the IC50 (NCI-H2009, 168 h, NCIH2009, lung, adenocarcinoma, 168 hours) was > 10000 nM and the EC50 (NCI-H2081, NCIH2081 cell line) was 1.46 nM. It also gave an IC50 (NCI-H2081, NCIH2081 cell line) of 2.57 nM, an EC50 (NCI-H2087, NCIH2087 cell line) of 2.58 nM and an IC50 (NCI-H2087, NCIH2087 cell line) of 3.56 nM. For the same compound, the EC50 (NCI-H2122, NCIH2122 cell line) was 16.7 nM, the IC50 (NCI-H2122, NCIH2122 cell line) was 23.9 nM and the EC50 (NCI-H2171, NCIH2171 cell line) was ≥ 10000 nM. The IC50 (NCI-H2171, NCIH2171 cell line) was > 10000 nM, the IC50 (NCI-H2228, NCIH2228 cell line) was 179 nM and the EC50 (NCI-H2286, NCIH2286 cell line) was 2.53 nM. The IC50 (NCI-H2286, NCIH2286 cell line) was 3.51 nM, the EC50 (NCI-H2291, NCIH2291 cell line) was 7.55 nM and the IC50 (NCI-H2291, NCIH2291 cell line) was 8.4 nM. The IC50 (NCI-H2347, NCIH2347 cell line) was 13.1 nM, the EC50 (NCI-N87, NCIN87 cell line) was 3.94 nM and the IC50 (NCI-N87, NCIN87 cell line) was 4.29 nM. It also gave an EC50 (NOMO-1, NOMO1 cell line) of 3.92 nM, an IC50 (NOMO-1, NOMO1 cell line) of 5.01 nM and an EC50 (NUGC-3, NUGC3 cell line) of 5.63 nM. For the same compound, the IC50 (NUGC-3, NUGC3 cell line) was 7.72 nM, the EC50 (NUGC-4, NUGC4 cell line) was 6.62 nM and the IC50 (NUGC-4, NUGC4 cell line) was 10.6 nM. For the same compound, the IC50 (ONS-76, 168 h, ONS76, central nervous system, NS, 168 hours) was > 10000 nM, the IC50 (OS-RC-2, OSRC2 cell line) was > 10000 nM and the IC50 (OVCAR-3, 168 h, NIHOVCAR3, ovary, NS, 168 hours) was > 10000 nM. The EC50 (P31-FUJ, P31FUJ cell line) was 2.43 nM, the IC50 (P31-FUJ, P31FUJ cell line) was 4.32 nM and the EC50 (PANC-1, PANC1 cell line) was 51.5 nM. For the same compound, the IC50 (PANC-1, PANC1 cell line) was 68.6 nM, the EC50 (PC-3, PC3 cell line) was 11.8 nM and the IC50 (PC-3, PC3 cell line) was 14.5 nM. For the same compound, the EC50 (PF-382, PF382 cell line) was 1.89 nM, the IC50 (PF-382, PF382 cell line) was 3.69 nM and the EC50 (PLC-PRF-5, PLCPRF5 cell line) was 16.4 nM. For the same compound, the IC50 (PLC-PRF-5, PLCPRF5 cell line) was 28 nM, the IC50 (RCM-1, RCM1 cell line) was > 10000 nM and the EC50 (RD, RD cell line) was 4.79 nM. For the same compound, the IC50 (RD, RD cell line) was 9.29 nM, the EC50 (REH, REH cell line) was 1.32 nM and the IC50 (REH, REH cell line) was 1.21 nM. The EC50 (RKO, RKO cell line) was 8.5 nM, the IC50 (RKO, RKO cell line) was 11.5 nM and the EC50 (RL, RL cell line) was 1.88 nM. The IC50 (RL, RL cell line) was 2.99 nM, the IC50 (RPMI-7951, 168 h, RPMI7951, skin, NS, 168 hours) was > 10000 nM and the EC50 (RPMI-8226, RPMI8226 cell line) was 10.4 nM. It also gave an IC50 (RPMI-8226, RPMI8226 cell line) of 12.5 nM, an EC50 (RT112/84, RT11284 cell line) of 4.14 nM and an IC50 (RT112/84, RT11284 cell line) of 4.43 nM. For the same compound, the IC50 (SAOS-2, 168 h, SAOS2, bone, NS, 168 hours) was > 10000 nM, the EC50 (SCC-4, SCC4 cell line) was 5.57 nM and the IC50 (SCC-4, SCC4 cell line) was 10.5 nM. The IC50 (SCC-9, 168 h, SCC9, upper aerodigestive tract, squamous cell carcinoma, 168 hours) was > 10000 nM, the IC50 (SCC-15, 168 h, SCC15, upper aerodigestive tract, squamous cell carcinoma, 168 hours) was > 10000 nM and the IC50 (SCC-25, 168 h, SCC25, upper aerodigestive tract, squamous cell carcinoma, 168 hours) was > 10000 nM. It also gave an EC50 (SCaBER, SCABER cell line) of 8.93 nM, an IC50 (SCaBER, SCABER cell line) of 15.2 nM and an EC50 (SH-SY5Y, SHSY5Y cell line) of 4.32 nM. The IC50 (SH-SY5Y, SHSY5Y cell line) was 13.5 nM, the EC50 (SK-BR-3, SKBR3 cell line) was 4.32 nM and the IC50 (SK-BR-3, SKBR3 cell line) was 7.14 nM. For the same compound, the EC50 (SK-CO-1, SKCO1 cell line) was ≥ 10000 nM, the IC50 (SK-CO-1, SKCO1 cell line) was 30.6 nM and the IC50 (SK-HEP1, 168 h, SKHEP1, liver, adenocarcinoma, 168 hours) was > 10000 nM. It also gave an EC50 (SK-LU-1, SKLU1 cell line) of 8.49 nM, an IC50 (SK-LU-1, SKLU1 cell line) of 40 nM and an IC50 (SK-MEL3, SKMEL3 cell line) of 472 nM. It also gave an EC50 (SK-MEL-1, SKMEL1 cell line) of 0.536 nM, an IC50 (SK-MEL-1, SKMEL1 cell line) of 9.24 nM and an EC50 (SK-MEL-2, SKMEL2 cell line) of 27 nM. It also gave an IC50 (SK-MEL-2, SKMEL2 cell line) of 140 nM, an EC50 (SK-MEL-5, SKMEL5 cell line) of 14.8 nM and an IC50 (SK-MEL-5, SKMEL5 cell line) of 16.8 nM. The IC50 (SK-MEL-24, 168 h, SKMEL24, skin, NS, 168 hours) was > 10000 nM, the EC50 (SK-MEL-28, SKMEL28 cell line) was 5.63 nM and the IC50 (SK-MEL-28, SKMEL28 cell line) was 5.56 nM. The EC50 (SK-MES-1, SKMES1 cell line) was 24.3 nM, the IC50 (SK-MES-1, SKMES1 cell line) was 47.5 nM and the IC50 (SK-N-SH, 168 h, SKNSH, autonomic ganglia, NS) was > 10000 nM. For the same compound, the IC50 (SK-OV-3, 168 h, SKOV3, ovary, adenocarcinoma, 168 hours) was > 10000 nM, the EC50 (SNB-19, SNB19 cell line) was 7.01 nM and the IC50 (SNB-19, SNB19 cell line) was 11.6 nM. For the same compound, the EC50 (SNU-5, SNU5 cell line) was 82.4 nM, the IC50 (SNU-5, SNU5 cell line) was 146 nM and the EC50 (SNU-16, SNU16 cell line) was 3.69 nM. It also gave an IC50 (SNU-16, SNU16 cell line) of 4.22 nM, an EC50 (SNU-398, SNU398 cell line) of 9.63 nM and an IC50 (SNU-398, SNU398 cell line) of 18 nM. The IC50 (SNU-C1, 168 h, SNUC1, large intestine, adenocarcinoma, 168 hours) was > 10000 nM, the IC50 (SUP-T1, SUPT1 cell line) was 3330 nM and the EC50 (SW48, SW48 cell line) was ≥ 10000 nM. The IC50 (SW48, SW48 cell line) was 50 nM, the EC50 (SW480, SW480 cell line) was 7.73 nM and the IC50 (SW480, SW480 cell line) was 9.79 nM. The EC50 (SW780, SW780 cell line) was 11.8 nM, the IC50 (SW780, SW780 cell line) was 13 nM and the IC50 (SW837, 168 h, SW837, large intestine, adenocarcinoma, 168 hours) was > 10000 nM. The IC50 (SW1417, 168 h, SW1417, large intestine, adenocarcinoma, 168 hours) was > 10000 nM, the EC50 (SW1463, SW1463 cell line) was 9.18 nM and the IC50 (SW1463, SW1463 cell line) was 9.24 nM. For the same compound, the EC50 (SW1710, SW1710 cell line) was 27.3 nM, the IC50 (SW1710, SW1710 cell line) was 63.3 nM and the IC50 (SW1990, SW1990 cell line) was > 10000 nM. For the same compound, the EC50 (SW-620, SW620 cell line) was 26.3 nM, the IC50 (SW-620, SW620 cell line) was 29.3 nM and the EC50 (T84, T84 cell line) was 10.1 nM. The IC50 (T84, T84 cell line) was 21 nM and the EC50 (TALL-1, TALL1 cell line) was 0.895 nM.
